Where no end group is shown, it is not given here.
Columns and labels:
ASH::ChR2 animals = assay: Cross-modal sensitization assay (reversal response to optogenetic ASH activation); format: in vivo, C. elegans
Text: Channelrhodopsin experiments: 1-2 day old well-fed adult animals were used for all experiments. For LED stimulation: for experiments with flp-20 mutant animals, a custom setup was used as described in ([Ezcurra et al., 2011]); for experiments on frpr-3 mutant animals and RNAi transgenic lines, a custom setup was used as in ([Ardiel et al., 2016], [Ardiel et al., 2017]) using 480 nm Luxeon star LEDs with 450 uw/mm^2 power. In contrast to locomotion arousal experiments described above, these experiments used an automated tapper, which produces equivalent speed responses (Figure S1C). […] ATR (R2500 Sigma-Aldrich) was provided to animals by feeding as described in ([Rabinowitch et al., 2016b]). > 20 animals were placed onto the seeded plate and at least 4 plates were assayed per condition and genotype on multiple days for all cross-modal sensitization behavioral experiments. Video recording was started 5 min after the plate was placed on the stage. For animals exposed to a pre-arousing tap, 1 tap was used, followed by a 20 s interval and then a 2 s blue light stimulation. […]
To test if 2-nonanone exposure could sensitize ASH-dependent reversals, 200 μL undiluted nonanone was spread with a pipette around the rim inside the lid of Petri dish. […] For all experiments, reversal length was analyzed using MATLAB ([Ardiel et al., 2017], [Ezcurra et al., 2011], [Ramot et al., 2008]).

[1] = tested on: C. elegans wild-type animals; assay: Locomotion assay after odorant stimuli; format: in vivo; settings: benzaldehyde 1% in ethanol, 2-nonanone undiluted, dropped in front of the nose
ASH neuron = assay: Nonanone sensitization assay, ASH calcium imaging in microfluidics chip; format: in vivo, C. elegans; settings: 5 s nonanone pulse (100%) then 0.5 M glycerol; GCaMP3; n = 9-10
Experimental: In microfluidics chip: Calcium imaging on 1-2 day old adult animals was performed in custom-designed microfluidic devices as described (using mechanical stimulus module from [Cho et al., 2018], [Cho et al., 2017]). These experiments were performed on a Leica DMIRB inverted microscope using a 40x air objective (N.A. 0.75). Video sequences were captured using a Hamamatsu EM-CCD camera with 100 ms exposure time. Simultaneous dual color imaging was performed using a DV2 beamsplitter (Photometrics) containing a GFP(520 nm)/RFP(605 nm) filter set. Excitation light for fluorescent imaging was delivered through a projector system ([Stirman et al., 2011]). […] Videos were recorded for 40-90 s following stimulus delivery. For analysis of calcium transients, fluorescence intensities for each frame were extracted using a custom MATLAB script ([Cho et al., 2018], [Cho et al., 2017]). […] GCaMP3 and RFP intensities were measured as the mean pixel intensity of the 100 brightest pixels in a circular region of interest (ROI) with a 10 pixel radius. […] All quantification is provided as the ratio of GCaMP3 to tagRFP fluorescence intensity. […]

FRPR-3 = target: T1, FRPR-3 (Caenorhabditis elegans, UniProt Q66GU0); assay: In vitro GPCR activation assay (aequorin calcium bioluminescence, CHO/mtAEQ/Gα16 cells); format: cell-based, C. elegans; settings: mammalian cells expressing aequorin and promiscuous Gα16
T1 sequence (Q66GU0 1-360): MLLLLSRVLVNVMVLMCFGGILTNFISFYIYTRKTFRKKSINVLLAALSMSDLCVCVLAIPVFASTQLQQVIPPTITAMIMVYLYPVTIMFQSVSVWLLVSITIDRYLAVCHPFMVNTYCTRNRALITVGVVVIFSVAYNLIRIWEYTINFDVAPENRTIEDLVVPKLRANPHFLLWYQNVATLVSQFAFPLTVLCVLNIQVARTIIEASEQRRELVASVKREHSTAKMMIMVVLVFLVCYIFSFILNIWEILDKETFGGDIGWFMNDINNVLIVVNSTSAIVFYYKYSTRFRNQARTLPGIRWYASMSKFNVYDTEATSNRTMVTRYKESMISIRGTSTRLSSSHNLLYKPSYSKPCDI
Experimental: Cell-based activation assays were performed as described ([Beets et al., 2012]). FRPR-3/C26F1.6 cDNA was cloned into the pcDNA3.1(+) TOPO expression vector (Thermo Fisher Scientific). Receptor activation was studied in Chinese hamster ovary cells (CHO) stably expressing apo-aequorin (mtAEQ) targeted to the mitochondria as well as the human Gα16 subunit. The CHO-K1 cell line (PerkinElmer, ES-000-A2) was used for receptor activation assays. CHO/mtAEQ/Gα16 cells were transiently transfected with the FRPR-3 cDNA construct or the empty pcDNA3.1(+) vector using the Lipofectamine transfection reagent (Thermo Fisher Scientific). Cells expressing the receptor were shifted to 28°C 1 day later, and collected 2 days post-transfection in BSA medium (DMEM/HAM’s F12 with 15 mM HEPES, without phenol red, 0.1% BSA) loaded with 5 μM coelenterazine h (Thermo Fisher Scientific) for 4 h to reconstitute the holo-enzyme aequorin. Cells (25,000 cells/well) were exposed to synthetic peptides in BSA medium, and aequorin bioluminescence was recorded for 30 s on a MicroBeta LumiJet luminometer (PerkinElmer, Waltham Massachusetts) in quadruplicate. For dose-response evaluations, after 30 s of ligand-stimulated calcium measurements, Triton X-100 (0.1%) was added to the well to obtain a measure of the maximum cell Ca^2+ response. BSA medium without peptides was used as a negative control and 1 μM ATP was used to check the functional response of the cells. Cells transfected with the empty vector were used as a negative control (not shown). EC50 values were calculated from dose-response curves, constructed using a nonlinear regression analysis, with sigmoidal dose-response equation (Prism 6.0).

Molecule: O=Cc1ccccc1 [benzaldehyde]
- Effect of odorant presence on tap-evoked enhancement of ASH responses (ASH::ChR2 animals; 1% benzaldehyde in ethanol on lid, tap, 20 s wait, blue light 2 s, n>15): did not prevent enhancement of ASH responses by tap

Molecule: CCCCCCCC(C)=O [nonanone, 2-nonanone]
- Enhancement of behavioral (reversal) response to optogenetic ASH activation by prior odorant exposure (ASH::ChR2 animals; 200 μL undiluted nonanone on lid, blue light 40 s later, n > 7): nor did it enhance behavioral responses to optogenetic activation of ASH
- Increase in locomotion speed after stimulus [1]: can evoke locomotor arousal
- Enhancement of ASH calcium responses to glycerol by prior odorant exposure (ASH neuron): did not significantly enhance ASH responses to glycerol

Molecule: AMMRF-NH2 [AMMRFa]
- EC50 values for activation of FRPR-3 (in words) (FRPR-3): low nanomolar range

Molecule: AVFRM-NH2 [AVFRMa]
- EC50 values for activation of FRPR-3 (in words) (FRPR-3): low nanomolar range

Molecule: SVFRL-NH2 [SVFRLa]
- EC50 values for activation of FRPR-3 (in words) (FRPR-3): low nanomolar range
